Measured values: publication PMC8870237, “Improved Multimodal Tumor Necrosis Imaging with IRDye800CW-DOTA Conjugated to an Albumin-Binding Domain” (Cancers, 2022)

Experiments:
4T1-Luc2 cells = assay: In vitro dead/alive cell binding assay (fluorescence and γ-counting); format: cell-based, mouse; conditions: indium-111 labeled, 100 nM, 2.5 MBq/nmol, EtOH-killed or alive 4T1-Luc2 cells, γ-counting
Description: The 4T1-Luc2 cells were cultured in RPMI-1640 medium containing 10% fetal bovine, penicillin (100 U/mL), and streptomycin ([…]) 37 °C under a humidified atmosphere with 5% CO2. The cells were seeded in 24 well plates (1 × 10^5 cells per well). The next day, the cells were killed with EtOH (70%, 50 μL) or kept alive and incubated for 30 min at 37 °C with 100 nM of the NACAs in culturing medium. The plate was then imaged on an Odyssey (Li-Cor, 800 nm laser intensity 5.0).
Similarly, these killed and alive cells were incubated with the indium-111 labeled NACAs (100 nM, 2.5 MBq/nmol) in culturing medium. The cells were washed with PBS and collected with NaOH (1.0 M) for γ-counting. These experiments were performed as triplicates.

[1] = test system: 4T1-Luc2 tumor-bearing mice; assay: Ex vivo biodistribution in 4T1-Luc2 tumor-bearing mice; parameters: species or system mouse; conditions: for Tumor to blood ratio / Tumor to muscle ratio: 4T1-Luc2 tumors; for Blood uptake / Bone marrow uptake / Bone uptake / Brain uptake / Colon uptake / Heart uptake / Kidneys uptake / Liver uptake / Lung uptake / Lymph nodes uptake / Muscle uptake / Pancreas uptake / Skin uptake / Small intestine uptake / Spleen uptake / 4T1-Luc2 Tumors uptake: ±SEM; for Blood uptake / Bone marrow uptake / Bone uptake / Brain uptake / Colon uptake / Heart uptake / Kidneys uptake / Liver uptake / Lung uptake / Lymph nodes uptake / Muscle uptake / Pancreas uptake / Skin uptake / Small intestine uptake / Spleen uptake: n = 4; for 4T1-Luc2 Tumors uptake: n = 8
Description: Female BALB/cAnNRj-nude mice (six to eight weeks old) were housed in ventilated cages in groups of four to six mice and were provided standard laboratory animal food pellets and water ad libitum. One week after arrival, tumor cells were injected bilaterally on the shoulders. Tumor growth was monitored three days per week with a caliper. All groups consisted of four mice with bilateral tumors.
The 4T1-Luc2 cells (1.0 × 10^5) suspended in 15 µL PBS were inoculated bilaterally in 16 mice in four groups of four animals each. […] First, FLI imaging was performed with a 730 nm excitation and 760 nm emission filter for 400 ms with 4 × 4 binning. Then, the mice received an intraperitoneal injection of D-luciferin (150 mg/kg) maintaining the position of the mice in the bed unaltered, and BLI imaging was performed with an open filter for 400 ms with 4 × 4 binning. Full body (head to tail base) SPECT images of the 5 cm axial field of view were obtained over a total scan time of 30 min, followed by a 2 min full-body CT. After imaging, the mice were euthanized for ex vivo analysis.
After the final imaging experiments, the mice were sacrificed by cervical dislocation, tumors and organs were collected, weighted, and activity was accurately quantified by γ-counting to determine radioactivity uptake in the percentage of injected dose per gram (%ID/g). After γ-counting, the tumors were frozen in liquid nitrogen and stored at −80 °C overnight. Adjacent cryosections (10 µm) were prepared of the tumor centers for autoradiography. The sections were stored at −20 °C for the radioactivity to decay, before 800 nm fluorescence imaging and histochemical dead cell staining.

SMILES: CC1(C)C(=CC=C2CCCC(C=CC3=[N+](CCCCCC(=O)NCCCC[C@H](NC(=O)CCCc4ccc(I)cc4)C(=O)NCc4ccc(CNC(=O)CN5CCN(CC(=O)[O-])CCN(CC(=O)[O-])CCN(CC(=O)[O-])CC5)cc4)c4ccc(S(=O)(=O)O)cc4C3(C)C)=C2Oc2ccc(S(=O)(=O)O)cc2)N(CCCCS(=O)(=O)O)c2ccc(S(=O)(=O)O)cc21.[111In+3] [[^111In]3]
- dead/alive cell binding, radioactivity (4T1-Luc2 cells): increased as compared to [^111In]1
- excretion route ([1]; 4T1-Luc2 tumor-bearing mice, from biodistribution): predominately excreted via the renal tract
- blood half-life ([1]; 4T1-Luc2 tumor-bearing mice, i.v.): 9 h
- Tumor to blood ratio ([1]; 6 h p.i.): 0.91±0.05
- Tumor to muscle ratio ([1]; 6 h p.i.): 3.19±0.43
- Blood uptake ([1]; 6 h p.i., i.v.): 4.34±0.22 %ID/g
- Bone marrow uptake ([1]; 6 h p.i., i.v.): 1.42±0.87 %ID/g
- Bone uptake ([1]; 6 h p.i., i.v.): 1.63±0.16 %ID/g
- Brain uptake ([1]; 6 h p.i., i.v.): 0.14±0.03 %ID/g
- Colon uptake ([1]; 6 h p.i., i.v.): 1.60±0.13 %ID/g
- Heart uptake ([1]; 6 h p.i., i.v.): 2.32±0.11 %ID/g
- Kidneys uptake ([1]; 6 h p.i., i.v.): 6.04±1.13 %ID/g
- Liver uptake ([1]; 6 h p.i., i.v.): 2.24±0.28 %ID/g
- Lung uptake ([1]; 6 h p.i., i.v.): 3.29±0.25 %ID/g
- Lymph nodes uptake ([1]; 6 h p.i., i.v.): 3.91±0.97 %ID/g
- Muscle uptake ([1]; 6 h p.i., i.v.): 1.31±0.20 %ID/g
- Pancreas uptake ([1]; 6 h p.i., i.v.): 1.33±0.13 %ID/g
- Skin uptake ([1]; 6 h p.i., i.v.): 2.59±0.09 %ID/g
- Small intestine uptake ([1]; 6 h p.i., i.v.): 0.93±0.07 %ID/g
- Spleen uptake ([1]; 6 h p.i., i.v.): 1.87±0.18 %ID/g
- 4T1-Luc2 Tumors uptake ([1]; 6 h p.i., i.v.): 3.94±0.19 %ID/g
- Tumor to blood ratio ([1]; 24 h p.i.): 2.50 ± 0.20
- Tumor to muscle ratio ([1]; 24 h p.i.): 7.26±0.89
- Blood uptake ([1]; 24 h p.i., i.v.): 1.31±0.05 %ID/g
- Bone uptake ([1]; 24 h p.i., i.v.): 0.93±0.13 %ID/g
- Brain uptake ([1]; 24 h p.i., i.v.): 0.07±0.00 %ID/g
- Colon uptake ([1]; 24 h p.i., i.v.): 0.70±0.07 %ID/g
- Heart uptake ([1]; 24 h p.i., i.v.): 1.22±0.06 %ID/g
- Liver uptake ([1]; 24 h p.i., i.v.): 1.20±0.01 %ID/g
- Lung uptake ([1]; 24 h p.i., i.v.): 1.20±0.04 %ID/g
- Lymph nodes uptake ([1]; 24 h p.i., i.v.): 2.42±0.18 %ID/g
- Muscle uptake ([1]; 24 h p.i., i.v.): 0.46±0.03 %ID/g
- Pancreas uptake ([1]; 24 h p.i., i.v.): 0.65±0.05 %ID/g
- Skin uptake ([1]; 24 h p.i., i.v.): 1.83±0.29 %ID/g
- Small intestine uptake ([1]; 24 h p.i., i.v.): 0.53±0.05 %ID/g
- Spleen uptake ([1]; 24 h p.i., i.v.): 1.45±0.03 %ID/g
- 4T1-Luc2 Tumors uptake ([1]; 24 h p.i., i.v.): 3.27±0.25 %ID/g
- Tumor to blood ratio ([1]; 48 h p.i.): 4.54±0.45
- Tumor to muscle ratio ([1]; 48 h p.i.): 7.27±0.34
- Blood uptake ([1]; 48 h p.i., i.v.): 0.58±0.01 %ID/g
- Bone uptake ([1]; 48 h p.i., i.v.): 0.74±0.04 %ID/g
- Brain uptake ([1]; 48 h p.i., i.v.): 0.04±0.00 %ID/g
- Colon uptake ([1]; 48 h p.i., i.v.): 0.37±0.02 %ID/g
- Heart uptake ([1]; 48 h p.i., i.v.): 0.78±0.01 %ID/g
- Kidneys uptake ([1]; 48 h p.i., i.v.): 8.31±0.96 %ID/g
- Liver uptake ([1]; 48 h p.i., i.v.): 0.90±0.04 %ID/g
- Lung uptake ([1]; 48 h p.i., i.v.): 0.76±0.03 %ID/g
- Lymph nodes uptake ([1]; 48 h p.i., i.v.): 3.30±0.62 %ID/g
- Muscle uptake ([1]; 48 h p.i., i.v.): 0.36±0.03 %ID/g
- Pancreas uptake ([1]; 48 h p.i., i.v.): 0.48±0.04 %ID/g
- Skin uptake ([1]; 48 h p.i., i.v.): 1.46±0.03 %ID/g
- Small intestine uptake ([1]; 48 h p.i., i.v.): 0.33±0.01 %ID/g
- Spleen uptake ([1]; 48 h p.i., i.v.): 1.19±0.07 %ID/g
- 4T1-Luc2 Tumors uptake ([1]; 48 h p.i., i.v.): 2.62±0.23 %ID/g
- Tumor to blood ratio ([1]; 72 h p.i.): 7.36±0.93
- Tumor to muscle ratio ([1]; 72 h p.i.): 9.10±1.58
- Blood uptake ([1]; 72 h p.i., i.v.): 0.31±0.03 %ID/g
- Bone marrow uptake ([1]; 72 h p.i., i.v.): 2.25±0.65 %ID/g
- Bone uptake ([1]; 72 h p.i., i.v.): 0.51±0.05 %ID/g
- Brain uptake ([1]; 72 h p.i., i.v.): 0.03±0.00 %ID/g
- Colon uptake ([1]; 72 h p.i., i.v.): 0.23±0.02 %ID/g
- Heart uptake ([1]; 72 h p.i., i.v.): 0.63±0.02 %ID/g
- Kidneys uptake ([1]; 72 h p.i., i.v.): 5.72±0.49 %ID/g
- Liver uptake ([1]; 72 h p.i., i.v.): 0.83±0.04 %ID/g
- Lung uptake ([1]; 72 h p.i., i.v.): 0.56±0.05 %ID/g
- Lymph nodes uptake ([1]; 72 h p.i., i.v.): 2.39±0.25 %ID/g
- Muscle uptake ([1]; 72 h p.i., i.v.): 0.26±0.03 %ID/g
- Pancreas uptake ([1]; 72 h p.i., i.v.): 0.32±0.02 %ID/g
- Skin uptake ([1]; 72 h p.i., i.v.): 1.52±0.09 %ID/g
- Small intestine uptake ([1]; 72 h p.i., i.v.): 0.20±0.02 %ID/g
- Spleen uptake ([1]; 72 h p.i., i.v.): 1.10±0.18 %ID/g
- 4T1-Luc2 Tumors uptake ([1]; 72 h p.i., i.v.): 2.25±0.64 %ID/g
- ex vivo colocalization with dead cells (autoradiography, NIR fluorescence, TUNEL) ([1]; adjacent sections of 4T1-Luc2 tumors): specific binding of the tracer to necrotic tumor regions
